According to US20130324603A1, “PHARMACEUTICAL COMPOSITION FOR TREATING INFLAMMATION AND PAIN” (priority 2012, published 2013):

Tested on: arachidonic acid-induced ear swelling
Experiment: topical arachidonic acid-induced ear swelling model in mice
Type: in vivo
Details: for % Inhibition of ear swelling: measured at 90 minutes, male ICR mice; for inhibition in the ear swelling induced by arachidonic acid relative to vehicle-treated group (in words): statistically significant, p<0.05
Method: The active compounds (methanesulfonylalkylnitriles, n=1-6), indomethacin (positive control), and vehicle were evaluated for anti-inflammatory activity in a topical arachidonic acid-induced ear swelling model in mice.
Methanesulfonylacetonitrile (n=1) was purchased from Aldrich. Methanesulfonylalkylnitriles, n=2-5 were prepared by a method modified from Hsi et al. (Scientia Sinica 1974, 17, 743-751) with 30% hydrogen peroxide as the oxidizing agent. 7-methanesulfonylheptanenitrile (n=6) was prepared according to Example 1. Each active compound and the positive control were dissolved in vehicle (ethanol/acetone 1:1).
Male ICR mice weighing 22±2 g were used and randomly divided; each group had 10 mice. Arachidonic Acid (0.5 mg in 20 μl of acetone:ethanol/1:1) was applied topically to the anterior and posterior surfaces of the right ear of each mice. Test substances and vehicle, as listed in Table 3 were similarly topically applied 30 min before and 15 min after arachidonic acid application. The thickness of the right ear and the left ear was measured and the difference calculated as an indication of the inflammation in the right ear. Ear swelling was measured by a Dyer model micrometer gauge at 60 and 90 minutes after arachidonic acid application as an index of inflammation. Percent inhibition was calculated according to the formula: Ic−It/Ic×100, where Ic and It refers to increase of ear thickness (mm) in control and treated mice, respectively. ANOVA and Dunnett's test were employed to ascertain significant difference between vehicle control and treated groups. Significance is set at P<0.05 level.

[1] = 375 mM in acetone:ethanol (1:1), 20 μL, 30 min before and 15 min after arachidonic acid

Row | SMILES | % Inhibition of ear swelling [1] [%] | inhibition in the ear swelling induced by arachidonic acid relative to vehicle-treated group (in words) | % Inhibition of ear swelling (positive control, 14 mM (0.5% w/v), 0.1 mg/20 μL) [%]
1 | CS(=O)(=O)CC#N [Methanesulfonylacetonitrile, methanesulfonylacetonitrile] | 22 | significant inhibition | –
2 | CS(=O)(=O)CCCCCCC#N [7-methanesulfonylheptanenitrile] | 46 | significant inhibition | –
3 | CS(=O)(=O)CCCCCC#N [6-methanesulfonylhexanenitrile] | 8 | – | –
4 | COc1ccc2c(c1)c(CC(=O)O)c(C)n2C(=O)c1ccc(Cl)cc1 [Indomethacin, reference compound] | – | – | 53
5 | CS(=O)(=O)CCCCC#N [5-methanesulfonylpentanenitrile] | 24 | significant inhibition | –
6 | CS(=O)(=O)CCCC#N [4-methanesulfonylbutyronitrile] | 15 | – | –
7 | CS(=O)(=O)CCC#N [3-methanesulfonylpropionitrile] | 36 | significant inhibition | –
